Measured values as given in US10993983B2, “Cyclic peptide epitopes and small-molecule mimics for inducing autophagy” (TRUSTEES OF TUFTS COLLEGE, priority 2016, dated 2021).
“Also recorded” adds a separate entry of the source. Bridges are numbered along the chain shown (N, C = ends). Where no end group is shown, it is not given here. [ ]: non-standard residue; d: D form. The star is where a group is joined. cyanopropanyl = 3-cyanopropanyl N-terminal cap, N#CCCC*; Nicotinoyl = O=C(c1cccnc1)*; Hexanoyl = CCCCCC(=O)*; Allyl = C=CC*

Test system: HeLa cells
Experiment: Autophagy induction judged by p62 and LC3 immunoblots together
Assay type: cell-based
Set-up: key to Activity compared to wild-type WT / Activity (μM) 10, single symbol / Activity (μM) 30, single symbol / Activity (μM) 50, single symbol / Activity (μM) 100, single symbol: −: activity not reported; 0: decreased vs. WT; +: similar to WT; ++: modest increase vs. WT; +++: significant increase vs. WT
Conditions: for concentration at which autophagy induction (p62 degradation and LC3 lipidation) was observed: immunoblot, 3 hour treatment; for Activity compared to wild-type WT: Tat-linked linear peptides, summation of p62 degradation assay and LC3 marker assay
Method: This 10-mer sequence was substituted with various thiol-containing amino acids at various positions, and then cross-linked with various linkers as described above (FIG. 5, a and FIG. 6).
Cells were treated with peptide in OPTI-MEM (Thermo Scientific) acidified with 0.15% (v/v) 6N HCl for 3 hour. Cells were rinsed with Dulbecco's phosphate buffered saline (PBS) and lysed in lysis buffer (20 mM HEPES, 150 mM NaCl, 1 mM EDTA, 1% Triton X-100, protease inhibitor cocktail (Roche) on ice for 1 hour. Cell lysates were centrifuged at 16,000 g for 10 min at 4° C. and analyzed by SDS-PAGE and transferred to PVDF membranes. The membranes were blocked 5% non-fat dry milk (NFDM) in PBST (PBS+0.05% Tween-20) for 1 hour, then incubated overnight at 4° C. with primary antibody in 5% NFDM in PBST. The blots were washed with PBST and incubated with HRP-conjugated secondary antibodies diluted in 5% NFDM in PBST for 1 hour at room temperature. Membranes were washed with PBST and visualized with SuperSignal West Pico Chemiluminescent Substrate (Thermo Scientific). Semi-quantitative results were obtained by noting the lowest concentration at which both p62 degradation and LC3-I to LC3-II conversion were observed.
(SEQ ID NO: 16)-Sequence. […] The N-terminus was capped with an acetyl group while the C terminus was capped with a —C(O)—NH2 group. The activity reported is a summation of results from both the p62 degradation assay and the LC3 marker assay.

[1] = HeLa cells, p62 and LC3 immunoblots

| Substance | autophagy induction, result in words [1] | Activity compared to wild-type WT | other results |
| --- | --- | --- | --- |
| (acetyl)-VcNAcFHIWH (Ac-V[dC]NA[dC]FHIWH; linker 2-5 via ortho‑xylene (inferred); not fully specified (C-terminus); printed as (acetyl)-VcNAcFHIWH) [Ac-DD5-o] | almost no autophagy-inducing activity | – | – |
| (pa)-VWNATFHIWH (not fully specified (N-terminus, C-terminus); printed as (pa)-VWNATFHIWH) [pa-10mer, no linker] | barely detectable activity | – | concentration at which autophagy induction (p62 degradation and LC3 lipidation) was observed (HeLa cells): 100 µM |
| (pa)-VcAAcFHIWH (pa-V[dC]AA[dC]FHIWH; linker 2-5 via ortho‑xylene (inferred)) [Asn3Ala] | milder effects on activity | – | – |
| VFNATFERWHD [Compound T20, Tat-linked linear peptide] | – | + | – |
| WNATFHIWHD [Compound T34, Tat-linked linear peptide] | – | +++ | – |
| VWNATFHIWHD [Compound T17, Tat-linked linear peptide] | – | +++ | Activity (μM) 10, single symbol (10 μM, Table 6, control DMSO, one symbol only): + |
| VFNACFEIWHD [Compound T5, Tat-linked linear peptide] | – | 0 | – |
| (pa)-AcNAcFHIWH (pa-A[dC]NA[dC]FHIWH; linker 2-5 via ortho‑xylene (inferred)) [Val1Ala] | complete loss in activity | – | autophagy induction, result in words (HeLa cells, p62 and LC3 immunoblots, listed as Vail): complete loss of activity |
| VFNATFEIWYD [Compound T10, Tat-linked linear peptide] | – | + | – |
| (nicot)-VcNAcFHIWH (Nicotinoyl-V[dC]NA[dC]FHIWH; linker 2-5 via ortho‑xylene (inferred); not fully specified (C-terminus); printed as (nicot)-VcNAcFHIWH) [nicot-DD5-o] | – | – | autophagy induction, result in words (HeLa cells, p62 and LC3 immunoblots, listed as nicotinic acid cap): showed no activity; also recorded: no activity was observed |
| CFNATFEIWHD [Compound T1, Tat-linked linear peptide] | – | + | – |
| FNATFHIWH [Compound T31, Tat-linked linear peptide] | – | + | – |
| VFNATFEIFHD [Compound T9, Tat-linked linear peptide] | – | + | – |
| (pa)-VcNAcFHIWH [DD5-m] (pa-V[dC]NA[dC]FHIWH; linker 2-5 via meta‑xylene (inferred)) | did not induce autophagy | – | – |
| WNATFHIWH [Compound T32, Tat-linked linear peptide] | – | ++ | – |
| VFNATFELWHD [Compound T8, Tat-linked linear peptide] | – | ++ | – |
| FNATFEIWHD [Compound T21, Tat-linked linear peptide] | – | ++ | – |
| VFNATFDIWHD [Compound T7, Tat-linked linear peptide] | – | + | – |

| Substance | autophagy induction, result in words [1] | Activity compared to wild-type WT | other results |
| --- | --- | --- | --- |
| (pa)-VcNAcFHAWH (pa-V[dC]NA[dC]FHAWH; linker 2-5 via ortho‑xylene (inferred)) [Ile8Ala] | complete loss of activity; also recorded: complete loss in activity | – | – |
| VFNATWEIWHD [Compound T6, Tat-linked linear peptide] | – | 0 | – |
| (pa)-VcNAcFHIWH [DD5-allyl] (pentynoyl-V[dC](Allyl)NA[dC](Allyl)FHIWH; not fully specified (C-terminus); printed as (pa)-VcNAcFHIWH [DD5-allyl]) [allyl, unstapled] | did not induce autophagy | – | – |
| (pa)-VcNAcFAIWH (pa-V[dC]NA[dC]FAIWH; linker 2-5 via ortho‑xylene (inferred)) [His7Ala] | milder effects on activity | – | – |
| (pa)-VcNAcFHIWA (pa-V[dC]NA[dC]FHIWA; linker 2-5 via ortho‑xylene (inferred)) [His10Ala] | significantly decreased activity | – | concentration at which autophagy induction (p62 degradation and LC3 lipidation) was observed (HeLa cells): 100 µM; activity relative to DD5-o (fold worse) [1]: 5 fold |
| (pa)-VWNATFHIWHD (not fully specified (N-terminus, C-terminus); printed as (pa)-VWNATFHIWHD) [pa-11mer, no linker] | did not increase autophagic activity; also recorded: loss of activity | – | – |
| VFNATFEFWHD [Compound T18, Tat-linked linear peptide] | – | + | – |
| VWNATFHIWH [Compound T33, Tat-linked linear peptide] | – | +++ | – |
| WNATFHIW [Compound T35, Tat-linked linear peptide] | – | ++ | – |
| (free amine)-VcNAcFHIWH (H-V[dC]NA[dC]FHIWH; linker 2-5 via ortho‑xylene (inferred); not fully specified (C-terminus); printed as VcNAcFHIWH) [Compound H2N-DD5-o] | almost no autophagy-inducing activity | – | – |
| (hexano)-VcNAcFHIWH (Hexanoyl-V[dC]NA[dC]FHIWH; linker 2-5 via ortho‑xylene (inferred); not fully specified (C-terminus); printed as (hexano)-VcNAcFHIWH) [hexano-DD5-o] | induced autophagy, but to a somewhat lesser extent than DD5-o | – | concentration at which autophagy induction (p62 degradation and LC3 lipidation) was observed (HeLa cells): 50 µM |
| (hexyno)-VcNAcFHIWH (hexynoyl-V[dC]NA[dC]FHIWH; linker 2-5 via ortho‑xylene (inferred); not fully specified (C-terminus); printed as (hexyno)-VcNAcFHIWH) [hexyno-DD5-o] | induced autophagy, but to a somewhat lesser extent than DD5-o | – | – |
| VWNATFHYWHD [Compound T26, Tat-linked linear peptide] | – | +++ | – |
| VWAATFHIWHD [Compound T36, Tat-linked linear peptide] | – | + | – |
| (cyano)-VcNAcFHIWH (cyanopropanyl-V[dC]NA[dC]FHIWH; linker 2-5 via ortho‑xylene (inferred); not fully specified (C-terminus); printed as (cyano)-VcNAcFHIWH) [cyano-DD5-o] | induced autophagy, but to a somewhat lesser extent than DD5-o | – | – |
| VWNAAFHIWHD [Compound T37, Tat-linked linear peptide] | – | ++ | – |
| (pentene)-VcNAcFHIWH [pentene-DD5-o] | induced autophagy, but to a somewhat lesser extent than DD5-o | – | concentration at which autophagy induction (p62 degradation and LC3 lipidation) was observed (HeLa cells): 50 µM |
